Assay results taken from patent US8921124B2, “Pyrazole-based cyanine dye” (Wako Pure Chemical Industries, Ltd., priority 2006, dated 2014).

Key:
[1] = described in general product catalogue 2006 of GE Healthcare Bioscience; in M-1cm-1; cited from earlier work
[2] = Fluorescence characteristics (max. absorption, excitation and fluorescence wavelengths, molar absorption coefficient); type: physicochemical
Method: Fluorescence characteristics are shown below.
(§1) Into 1 mL of purified water, Cy5 for labeling 1 mg of protein (manufactured by GE Healthcare Bioscience Biohealth Co., Ltd.), was dissolved. This solution was diluted 200 times with a 50 mM phosphoric acid buffer solution (pH 7.5) to measure OD value (0.1020).
(§2) Concentration of a Cy5 solution was determined from this OD value and molar absorption coefficient (ε=250,000), [described in a general product catalogue 2006 “7-4” of GE Healthcare Bioscience Co., Ltd.]), (0.408 μM). Then fluorescence was measured using the present solution.

[3] = Relative fluorescence intensity, roughly calculated relative to Cy5 per 1 μM as 100; type: physicochemical
Method: Relative fluorescence intensity of a compound of the present invention was roughly calculated relative to fluorescence intensity of Cy5, which is a conventional cyanine dye.
First, fluorescence intensity of Cy5 per 1 μM was measured from fluorescence intensity of Cy5, and relative fluorescence intensity of the compound of the present invention was roughly calculated relative to this fluorescence intensity value as 100.
as §1, §2
Relative fluorescence intensities of the compounds (13), (21), (32) and (38) of the present invention were roughly estimated relative to fluorescence intensity of Cy5 per 1 μM, obtained in Example 8, (1), as 100.
Relative fluorescence intensity of a compound of the present invention was roughly calculated based on fluorescence intensity of Cy5, which is a conventional cyanine dye derivative.
First, fluorescence intensity of Cy5 per 1 μM was measured from fluorescence intensity of Cy5, and relative fluorescence intensity of the compound of the present invention was roughly calculated based on this fluorescence intensity value as 100.
Into 1 mL of purified water, Cy5 (manufactured by GE Healthcare Bioscience Biohealth Co., Ltd.) for labeling 1 mg of protein, was dissolved. This solution was diluted 200 times with a 50 mM phosphoric acid buffer solution (pH 7.5) to measure OD value (0.1020).
Concentration of a Cy5 solution was determined from this OD value and molar absorption coefficient (E=250,000, [described in a general product catalogue 2006 “7-4” of GE Healthcare Bioscience Co., Ltd.]), (0.408 μM).
Then fluorescence of Cy5 was measured using the present solution.
Relative fluorescence intensity of the compound (40) of the present invention, obtained in Example 11 and the compound (43) of the present invention, obtained in Example 12 were roughly calculated, relative to fluorescence intensity per 1 μM of Cy5, obtained in Example 14, (1), as 100.

[4] = 0.408 μM solution in 50 mM phosphoric acid buffer solution (pH 7.5)
[5] = Cy5 solution 0.408 μM in 50 mM phosphoric acid buffer solution (pH 7.5)

Max. excitation wavelength [Ex(max)] [2, 4]: 649 nm | Max. fluorescence wavelength [Em(max)] [2, 4]: 670 nm | Max. excitation wavelength [Ex(max)] [2, 5]: 649 nm | Max. fluorescence wavelength [Em(max)] [2, 5]: 670 nm | Fluorescence intensity [3, 5]: 3,161 | Fluorescence intensity of Cy5/1 μM ([3]; per 1 μM, from intensity at 0.408 μM): 7,747 | Fluorescence intensity of Cy5/1 μM ([3]; per 1 μM, from the intensity of the 0.408 μM solution): 7,747 | Relative fluorescence intensity [relative to fluorescence intensity of Cy5 (1 μM) as 100] ([3]; roughly calculated, Cy5 per 1 μM = 100): 100 | Relative fluorescence intensity [relative to fluorescence intensity of Cy5 (1 μM) as 100] ([3]; roughly calculated; Cy5 per 1 μM = 100): 100
Compound: CCN1/C(=C/C=C/C=C/C2=[N+](CCCCCC(=O)O)c3ccc(S(=O)(=O)O)cc3C2(C)C)C(C)(C)c2cc(S(=O)(=O)[O-])ccc21 [Cy5]
molar absorption coefficient (ε) [1]: 250,000
